Laboratory results from patent US20070112022A1, “Piperidine derivatives as ccr5 receptor modulators” (priority 2003, published 2007).

Target: recombinant human CCR5 receptor (Homo sapiens, UniProt P51681)
Test: in vitro radioligand binding assay: inhibition of iodinated MIP-1α binding to CCR5 membranes (scintillation proximity)
Details: displacement of 0.1 nM iodinated MIP-1α; membranes from Chinese hamster ovary cells expressing recombinant human CCR5; average if tested more than once
Procedure: The ability of compounds to inhibit the binding of MIP-1α was assessed by an in vitro radioligand binding assay. Membranes were prepared from Chinese hamster ovary cells which expressed the recombinant human CCR5 receptor. These membranes were incubated with 0.1 nM iodinated MIP-1α, scintillation proximity beads and various concentrations of the compounds of the invention in 96-well plates. The amount of iodinated MIP-1α bound to the receptor was determined by scintillation counting. Competition curves were obtained for compounds and the concentration of compound which displaced 50% of bound iodinated MIP-1α was calculated (IC50).
In Table VI the results are presented as Pic50 values. A Pic50 value is the negative log (to base 10) of the IC50 result, so an IC50 of 1 μM (that is 1×10^−6M) gives a Pic50 of 6. If a compound was tested more than once then the data below is an average of the probative tests results.

recombinant human CCR5 receptor, sequence (P51681 whole entry): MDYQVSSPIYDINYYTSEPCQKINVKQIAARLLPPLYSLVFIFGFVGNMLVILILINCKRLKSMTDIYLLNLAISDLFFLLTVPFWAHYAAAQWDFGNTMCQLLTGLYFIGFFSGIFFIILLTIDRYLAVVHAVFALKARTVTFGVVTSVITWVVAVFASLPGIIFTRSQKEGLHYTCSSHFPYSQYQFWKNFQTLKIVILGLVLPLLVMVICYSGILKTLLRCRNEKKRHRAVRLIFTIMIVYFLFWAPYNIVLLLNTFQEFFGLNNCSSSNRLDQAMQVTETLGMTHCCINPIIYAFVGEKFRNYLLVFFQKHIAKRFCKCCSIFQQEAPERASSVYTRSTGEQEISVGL

| SMILES | IC50 [nM] |
| --- | --- |
| CC(=O)Nc1ccc(S(=O)(=O)NCC2CCN(CC[C@@H](c3cc(F)cc(F)c3)C3CCN(S(C)(=O)=O)CC3)CC2)cc1 [Compound 4 (Table I), N-[4-({[(1-{(3R)-3-(3,5-difluorophenyl)-3-[1-(methylsulfonyl)piperidin-4-yl]propyl}piperidin-4-yl)methyl]amino}sulfonyl)phenyl]-acetamide] | 7.94 |
| CS(=O)(=O)c1ccc([C@@H](CCN2CCC(CNS(=O)(=O)c3ccc(NS(=O)(=O)C(F)(F)F)cc3)CC2)c2cc(F)cc(F)c2)cc1 [Compound 16 (Table II), N-[(1-{(3R)-3-(3,5-difluorophenyl)-3-[4-(methylsulfonyl)phenyl]propyl}piperidin-4-yl)methyl]-4-{[(trifluoromethyl)sulfonyl]amino}-benzenesulfonamide] | 50.1 |
| CS(=O)(=O)c1ccc([C@@H](CCN2CCC(CNS(=O)(=O)c3ccc(-c4nnn[nH]4)cc3)CC2)c2cc(F)cc(F)c2)cc1 [Compound 19 (Table II), N-[(1-{(3R)-3-(3,5-difluorophenyl)-3-[4-(methylsulfonyl)phenyl]propyl}piperidin-4-yl)methyl]-4-(1H-tetrazol-5-yl)-benzenesulfonamide] | 7.94 |
